Laboratory results from article PMC12703733, “Probing Guanidino Pendant or Bridged Groups in Cyclic Antimicrobial Peptides Derived from Temporin L: A Strategy to Improve Efficacy against Gram-Negative Bacteria” (Journal of Medicinal Chemistry, 2025).
Values after ≈ are worked out from the molar mass of the structure shown. Where two headings read alike, the source gives them in different places. Bridge positions count the residues as written; N and C are the ends. Square brackets hold non-standard residues; d marks the D form. Peptide text beside a SMILES is read from it.

What was measured:
circular dichroism = conditions: water; pH ns; 25 °C; 150 uM
[1] = Circular dichroism in water (BeStSel); type: physicochemical; conditions: predicted from CD spectra in H2O using BeStSel
Description: The secondary structure of each peptide was studied in solution and in small unilamellar vesicles (SUVs) mimicking Gram-positive and Gram-negative membranes performing CD analysis. The CD spectrum for each peptide in solution was recorded at 150 μM, using the quartz cells of 0.1 cm path length with a Jasco J-1500 CD Spectrometer at 25 °C. SUVs at the concentration of 150 μM (P/L = 1) and […] (P/L = 0.4) were prepared as reported: the lipid film was hydrated with water for 1h and then sonicated for 30 min. CD spectra were recorded at the peptide/lipid ratio of 1:1 both in the presence with SUVs mimicking Gram-positive and Gram-negative membranes. CD spectra were recorded at 25 °C on a in a 0.1 cm quartz cell using three consecutive scans from 260 to 190 nm, 3 nm bandwidth, a time constant of 16 s, and a scan rate of 10 nm/min.

[2] = Description: The fusogenic ability of peptides was studied performing the lipid mixing experiment and evaluating a reduction in the fluorescence energy transfer efficiency between fluorophores 12-(N-methyl-N-(7-nitrobenz-2-oxa-1,3-diazol-4-yl)) (NBD) and Rhodamine (Rho) bound to liposomes. We prepared unlabeled LUVs mimicking Gram-positive and Gram-negative membranes at a concentration of 0.16 mM, and labeled LUVs mimicking Gram-positive and Gram-negative membranes with 0.6% mol of NBD-PE and 0.6% mol of Rho-PE at the concentration of 0.04 mM. LUVs were prepared as described above, and for the experiment, unlabeled and labeled LUVs were mixed at a 1:4 ratio to have final lipid concentration of 0.1 mM. The fusogenic activity of each peptide was evaluated at lipide/peptide ratio of 0.01, 0.03, 0.05, 0.1, 0.2, 0.3, 0.5, and NBD emission at 530 nm and Rho emission at 590 nm were recorded setting an NBD excitation wavelength set at 465 nm.
The percentage of fusion was calculated as a function of 100% value corresponding to complete mixing of LUVs upon the addition of Triton X-100 (0.05% v/v). The percentage fusion was calculated as [F530/F590]peptide−[F530/F590]blank/[F530/F590]triton−[F530/F590]blank×100 where F 530 and F 590 are the fluorescence intensities at 530 and 590 nm calculated in the absence and in the presence of the peptide and Triton X-100.

S. aureus ATCC 25923 = test: microbe, parasite or virus in culture; type: cell-based; conditions: ATCC 25923
Method in brief: (§1)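 Mid-log bacteria diluted to 2 × 10^6 cell/mL in Mueller Hinton broth and incubated with compound at 37 °C; ciprofloxacin as control. MICs from three identical readings across four independent experiments.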

S. agalactiae ATCC 27591 = test: microbe, parasite or virus in culture; type: cell-based; conditions: ATCC 27591
Method in brief: as §1

E. coli D21 = test: microbe, parasite or virus in culture; type: cell-based; conditions: D21
Method in brief: as §1

A. baumannii ATCC 19606 = test: microbe, parasite or virus in culture; type: cell-based; conditions: ATCC 19606
Method in brief: as §1

B. megaterium BM11 = test: microbe, parasite or virus in culture; type: cell-based; conditions: BM11
Method in brief: as §1

E. coli ATCC 25922 = test: microbe, parasite or virus in culture; type: cell-based; conditions: ATCC 25922
Method in brief: as §1

P. aeruginosa PAO1 = test: microbe, parasite or virus in culture; type: cell-based; conditions: PAO1
Method in brief: as §1

[3] = system: S. epidermidis ATCC 12228; test: microbe, parasite or virus in culture; type: cell-based; conditions: ATCC 12228
Method in brief: as §1

E. faecalis ATCC 29212 = test: microbe, parasite or virus in culture; type: cell-based; conditions: ATCC 29212
Method in brief: as §1

P. aeruginosa ATCC 27853 = test: microbe, parasite or virus in culture; type: cell-based; conditions: ATCC 27853
Method in brief: as §1

in vitro = in vitro ADME; conditions: isolated enzyme chymotrypsin, pH 7.8
Description: Peptide stability was evaluated by modifying previously described procedures. , The assays were performed in human serum and in the presence of proteolytic enzymes such as trypsin and chymotrypsin. For human serum stability, 2 mM peptide stock solutions were prepared in water and mixed with human serum (from male AB plasma, USA origin, sterile-filtered, Merck/Sigma-Aldrich, USA) to obtain a final concentration of 200 μM [human plasma/stock solution (9:1, v/v)]. The mixtures were incubated at 37 ± 1 °C, and 50 μL aliquots were taken at predetermined time intervals (0, 1, 2, 4, 8, and 24 h). Protease activity was quenched by adding 100 μL of acetonitrile (MeCN). The resulting cloudy suspensions were cooled to 4 °C for 30 min and centrifugated at 12,000 rpm for 10 min to remove the serum proteins. Then, the supernatants were analyzed by analytical HPLC (Shimadzu Nexera Liquid Chromatograph LC-30AD) which was equipped with a Phenomenex Kinetex reversed-phase column (C18, 5 μm, 100 Å, 150 mm × 4.6 mm) with a flow rate of 1 mL/min using a gradient of MeCN (0.1% TFA) in water (0.1% TFA), from 10 to 70% over 15 min, and UV detection at 220 nm. For enzyme stability, each peptide peptide (200 μM) was incubated with trypsin (0.5 μM) in PBS 1× (pH 7.2) or with chymotrypsin (0.005 μM) in Tris–HCl (100 mM, pH 7.8). Samples (50 μL) were collected at 0, 1, 2, 4, and 24 h, quenched with 0.5% TFA in water, and analyzed by HPLC under chromatographic conditions as described above. All experiments were conducted in triplicate. The percentage of intact peptides at each time point was determined by integrating the corresponding HPLC peak areas.

With `CC[C@H](C)[C@H](NC(=O)[C@H](CCCNC(=N)N)NC(=O)[C@H]1CCC(=O)NCCCC[C@H](NC(=O)[C@H](Cc2ccccc2)NC(=O)[C@H](Cc2c[nH]c3ccccc23)NC(=O)[C@@H]2CCCN2C(=O)[C@@H](NC(=O)[C@@H](N)Cc2ccccc2)C(C)C)C(=O)N[C@@H](CCCCN)C(=O)N[C@@H](Cc2ccccc2)C(=O)N[C@H](CC(C)C)C(=O)N1)C(=O)N[C@@H](CC(C)C)C(N)=O` [Peptide 2, FVPWF[KKFle]RIL] (H-FVPWFKKF[dL][dE]RIL-NH2; lactam 6-10) the helicity (circular dichroism) was 7%, the “Content in water (%) random” value [1] was 55% and the “Content in water (%) α-helix” value [1] was 7%. The “Content in water (%) β-strand” value [1] was 38%, the fusion ([2]; LUVs DOPG:CL, P/L ratio of 0.3) was 100% and the fusion ([2]; LUVs DOPG:DOPE:CL, P/L ratio of 0.5) was 75%. The MIC (S. aureus ATCC 25923) was 12.5 µM (≈ 21.3 µg/mL), the MIC (S. agalactiae ATCC 27591) was 3.12 µM (≈ 5.32 µg/mL) and the MIC (E. coli D21) was 12.5 µM (≈ 21.3 µg/mL). The MIC (A. baumannii ATCC 19606) was 6.25 µM (≈ 10.7 µg/mL), the MIC (B. megaterium BM11) was 0.78 µM (≈ 1.33 µg/mL) and the MIC (E. coli ATCC 25922) was 6.25 µM (≈ 10.7 µg/mL). For the same molecule, the MIC (P. aeruginosa PAO1) was 50 µM (≈ 85.2 µg/mL), the MIC [3] was 3.12 µM (≈ 5.32 µg/mL) and the MIC (E. faecalis ATCC 29212) was 25 µM (≈ 42.6 µg/mL). For the same molecule, the MIC (P. aeruginosa ATCC 27853) was 50 µM (≈ 85.2 µg/mL) and the remaining at 4 h, 200 μM (in vitro) was ~20%.
